# Measurements as given in patent US20240139210A1, “TREATMENT OF NF-KB-MEDIATED DISEASE” (ReveraGen BioPharma, Inc., priority 2020, published 2024).
# Columns and labels:
# [1] = system: ambulant boys aged 4 to <7 years with DMD; experiment: VBP15-004 adverse events; parameters: species or system human; conditions: in vivo
# Excerpt: (§1) The second period of 24 weeks, where all participants receive vamorolone treatment on either of the two dose levels, will continue to capture additional longer-term safety and tolerability data.
# The study completion rate at 24 weeks was 94% (or 114 of 121 participants).
# Pre-specified AESIs typically for corticosteroids were higher in prednisone-treated subjects than vamorolone-treated subjects after 24 weeks of treatment (Table 10).
# [2] = system: ambulant boys aged 4 to <7 years with DMD; experiment: VBP15-004 growth (height Z scores); type: in vivo, human
# Excerpt: as §1
# [3] = VBP15-002 multiple ascending dose trial, PK and safety; type: in vivo, human
# Description: Vamorolone clinical studies have been conducted in adult male volunteers and boys with DMD, a disorder in which skeletal muscle is in a chronic inflammatory state. Two consecutive open-label dose-ranging studies in 48 DMD patients aged 4 to <7 years (corticosteroid-naïve) were conducted (Phase IIa, VBP15-002; Phase IIa, VBP15-003). Doses were tested over a 24-fold dose range (0.25, 0.75, 2.0, and 6.0 mg/kg/day), with 12 participants per group. The first multiple ascending dose (MAD) cohort trial-tested pharmacokinetics (PK) and safety for 2 weeks of drug dosing followed by a 2-week washout (VBP15-002). […] All DMD participants completed the MAD study and then continued on the same dose for a 24-week dose-finding (efficacy and safety) extension study (VBP15-003).
# VBP15-002 (Phase IIa; two weeks on the drug, two weeks off drug) enrolled 48 corticosteroid-naïve participants with DMD, and all 48 participants completed the study and enrolled into VBP15-003 (Phase IIa extension; 24-week treatment). Forty-six of 48 participants completed the VBP15-003 study (2 participants withdrew from VBP15-003 for reasons unrelated to the study drug). In addition, all participants (46/46) opted to enroll in the 24-month long-term extension study, VBP15-LTE.
# [4] = system: participants with DMD; experiment: CINRG DNHS corticosteroid-treated external comparator; type: in vivo, human; conditions: vamorolone versus corticosteroid-treated DNHS, 18 months
# Excerpt: The consecutive vamorolone trials (VBP15-002, VBP15-003, VBP15-LTE) were open-label with no placebo comparator. Corticosteroid-naïve and corticosteroid-treated DMD participant comparators were group-matched participants from the CINRG DNHS (NCT00468832). The CINRG DNHS was an observational, prospective case-control study of 551 participants (440 with DMD, 111 healthy peers). For group matching between vamorolone-treated participants and CINRG DNHS participants, prespecified criteria were defined for matching within the interim statistical analysis plan (iSAP). Age-matched CINRG DNHS participants included those continuously corticosteroid-naïve over an 18-month period (n=19) or continuously corticosteroid-treated over an 18-month period (n=68). For the 68 corticosteroid-treated participants, as this was an observational cohort, corticosteroid doses and regimens varied based on clinician discretion. Although all 68 participants were treated for 18 months continuously, the age at initiation of corticosteroids varied. Thus, the total duration of corticosteroid treatment was longer than 18 months for most participants. […]
# The incidences of physician-reported AEs typically for corticosteroid treatment were determined for participants that had been treated with vamorolone 6.0 mg/kg/day (for any duration), taken from the March 2019 Data Safety Update Report (DSUR) (pharmacovigilance report). […]
# [5] = system: participants with DMD; experiment: Physician-reported adverse events in vamorolone trials (DSUR, DSMB report); type: in vivo, human
# Description: Study visits took place quarterly, including assessment of clinical laboratory results, vital signs, and AEs. All AEs were coded using the Medical Dictionary for Regulatory Activities (MedDRA version 19.0) system for reporting (preferred term and system organ class). Clinical efficacy assessments were performed at baseline of the VBP15-002 study, at six months (end of VBP15-003 study), and the 12-month midpoint visit of the VBP15-LTE study.
# A Data and Safety Monitoring Board report on the VBP15-LTE study covering all participants enrolled in the VBP15-LTE study (inclusive beyond the 12-month midpoint assessment) included three serious AEs (2 myoglobinuria events [in the same participant] and one pneumonia), all deemed unrelated to study drug. For all reported TEAEs, 402 were deemed unrelated to vamorolone, 37 were deemed remotely related, 29 were deemed possibly related, 11 were deemed probably related, and three were deemed definitely related. Of the 14 AEs probably and definitely related to vamorolone, 10 were weight gain, 2 were increased appetite, 1 was Cushingoid features, and 1 was irritability.
# The incidences of physician-reported AEs typically for corticosteroid treatment were determined for participants that had been treated with vamorolone 6.0 mg/kg/day (for any duration), taken from the March 2019 Data Safety Update Report (DSUR) (pharmacovigilance report). Incidence rates of Cushingoid features, weight gain, hirsutism, and behavior change were studied (Table 8).
# [6] = system: ambulant boys aged 4 to <7 years with DMD; experiment: VBP15-004 bone turnover biomarkers; type: in vivo, human; conditions: for CTX, difference vs. prednisone / Osteocalcin, difference vs. prednisone / P1NP, difference vs. prednisone: Week 24
# [7] = 6.0 mg/kg/day vamorolone for any duration, n = 38
# [8] = VBP15-LTE, DSMB report, all participants
compound,measurement,setting,value
"C[C@@H]1C[C@H]2[C@@H]3CCC4=CC(=O)C=C[C@]4(C)C3=CC[C@]2(C)[C@@]1(O)C(=O)CO [Vamorolone, 17α,21-dihydroxy-16α-methylpregna-1,4,9(11)-triene-3,20-dione]","clinically relevant psychiatric events, subjects",[1],no vamorolone-treated subjects
same,"moderate/severe behavior problems, subjects","[1]; male, human, 24 weeks",1.7%
same,change in height Z scores from baseline to Week 24,[2]; vamorolone 2.0 mg/kg/day,overall stable height change Z scores
same,change in height Z scores from baseline to Week 24,[2]; vamorolone 6.0 mg/kg/day,increased growth rate
same,dose-limiting toxicities,"[3]; 0.25-6.0 mg/kg/day, 2 weeks dosing",no dose-limiting toxicities
same,drug accumulation,[3]; day 1 vs day 14,no drug accumulation
same,half-life,"[3]; male, human, in vivo, oral, DMD patients aged 4 to <7 years, 0.25-6.0 mg/kg/day, 2 weeks dosing",~2 h
same,"Mean height percentile for age, LS mean difference (SE), ANCOVA",[4],15.86 percentile
same,Incidence of physician-reported Cushingoid,[5]; [7],2.6%
same,Incidence of physician-reported behavior change,[5]; [7],0%^2
same,Incidence of physician-reported hypertrichosis/hirsutism,[5]; [7],0%
same,Incidence of physician-reported weight gain,[5]; [7],13.2%
same,"Cushingoid features among the 14 AEs probably and definitely related, number","[5]; VBP15-LTE, DSMB report",1
same,"increased appetite among the 14 AEs probably and definitely related, number","[5]; VBP15-LTE, DSMB report",2
same,"irritability among the 14 AEs probably and definitely related, number","[5]; VBP15-LTE, DSMB report",1
same,"weight gain among the 14 AEs probably and definitely related, number","[5]; VBP15-LTE, DSMB report",10
same,"TEAEs deemed definitely related, number",[5]; [8],three
same,"TEAEs deemed possibly related, number",[5]; [8],29
same,"TEAEs deemed probably related, number",[5]; [8],11
same,"TEAEs deemed remotely related, number",[5]; [8],37
same,"TEAEs deemed unrelated to vamorolone, number",[5]; [8],402
same,"serious AEs, number","[5]; VBP15-LTE, DSMB report, all deemed unrelated to study drug",three
same,"Osteocalcin, mean (SEM) change at Week 24",[6]; Vamorolone 2.0 mg (N = 17),8.3 (3.1) ng/ml
same,"Procollagen 1 N-Terminal Propeptide (P1NP), mean (SEM) change at Week 24",[6]; Vamorolone 2.0 mg (N = 17),48 (27) ng/mL
same,"Type I Collagen C-Telopeptides (CTX), mean (SEM) change at Week 24",[6]; Vamorolone 2.0 mg (N = 17),177 (52) pg/mL
same,"CTX, difference vs. prednisone",[6]; Vamorolone 2.0 mg,477 (p < 0.001) pg/mL
same,"Osteocalcin, difference vs. prednisone",[6]; Vamorolone 2.0 mg,23.5 ng/mL
same,"P1NP, difference vs. prednisone",[6]; Vamorolone 2.0 mg,182 ng/mL
same,"Osteocalcin, mean (SEM) change at Week 24",[6]; Vamorolone 6.0 mg (N = 23),1.7 (2.8) ng/ml
same,"Procollagen 1 N-Terminal Propeptide (P1NP), mean (SEM) change at Week 24",[6]; Vamorolone 6.0 mg (N = 23),−11 (22) ng/mL
same,"Type I Collagen C-Telopeptides (CTX), mean (SEM) change at Week 24",[6]; Vamorolone 6.0 mg (N = 23),90 (44) pg/mL
same,"CTX, difference vs. prednisone",[6]; Vamorolone 6.0 mg,390 (p < 0.001) pg/mL
same,"Osteocalcin, difference vs. prednisone",[6]; Vamorolone 6.0 mg,16.9 ng/mL
same,"P1NP, difference vs. prednisone",[6]; Vamorolone 6.0 mg,124 (p < 0.001) ng/mL
